In US6407103B2, “Indeno [1,2-c] pyrazol-4-ones and their uses” (Bristol-Myers Squibb Pharma Company, priority 1998, dated 2002) one finds melting point data, which are given here for 32 compounds.

Where a name gives a salt, the structure may show the parent alone.

In the case of `CC(C)(C)OC(=O)NC1CCC(C(=O)N2CCC(c3[nH]nc4c3C(=O)c3c(NC(=O)NN5CCOCC5)cccc3-4)CC2)CC1` (centres unmarked) (as salt: TFA) [Example CCLXXXV, 3-(1-(4-(t-butoxycarbonylamino)cyclohexylcarbonyl)piperidin-4-yl)-5-(morpholinocarbamoylamino)indeno[1,2-c]pyrazol-4-one], the melting point is 210 °C.
Compound `NC1CCCC(C(=O)N2CCC(c3[nH]nc4c3C(=O)c3c(NC(=O)NN5CCOCC5)cccc3-4)CC2)C1` (centres unmarked) (as salt: TFA) [Example CCXC, 3-(1-(3-aminocyclohexylcarbonyl)piperidin-4-yl)-5-(morpholinocarbamoylamino)indeno[1,2-c]pyrazol-4-one] had a melting point of 201 °C.
The same measure for `O=C(Nc1cccc2c1C(=O)c1c-2n[nH]c1-c1ccc(C(=O)N2CCC[C@H]2CNc2ccccc2)s1)NN1CCOCC1` (as salt: TFA) [Example CLXXXVII, 3-(5-(2(S)-(phenylaminomethyl)pyrrolidinocarbonyl)-2-thienyl)-5-(morpholinocarbamoylamino)indeno[1,2-c]pyrazol-4-one]: > 300 °C.
Consider `COc1ccc(-c2[nH]nc3c2C(=O)c2c(NC(=O)CN4CCOCC4)cccc2-3)cc1` [Example XXXIII, 3-(4-methoxyphenyl)-5-(morpholinoacetamido)indeno[1,2-c]pyrazol-4-one], for which the melting point was determined as 295 °C.
The compound `COC(=O)Nc1ccc(CC(=O)Nc2cccc3c2C(=O)c2c-3n[nH]c2-c2ccc(OC)cc2)cc1` [Example XXXVII, 3-(4-methoxyphenyl)-5-((4-(methoxycarbonylamino)phenyl)acetamido) indeno[1,2-c]pyrazol-4-one] yielded a melting point of 257 °C.
The same measure for `COc1ccc(-c2[nH]nc3c2C(=O)c2c(NC(=O)N[C@@H]4CCCC[C@@H]4N)cccc2-3)cc1` (relative stereo) [Example LXVII, 3-(4-methoxyphenyl)-5-((cis-2-aminocyclohexylcarbamoyl)amino)indeno[1,2-c]pyrazol-4-one]: > 300 °C.
The same measure for `COc1ccc(-c2[nH]nc3c2C(=O)c2c(NC(=O)Cc4ccccc4)cccc2-3)cc1` [Example VIII, 3-(4-methoxyphenyl)-5-(phenylacetamido)indeno[1,2-c]pyrazol-4-one]: 280 °C; for `O=C(CN1CCC(O)CC1)Nc1cccc2c1C(=O)c1c-2n[nH]c1-c1ccc(N2CCOCC2)cc1` [Example LXXXIII, 3-(4-(4-morpholinyl)phenyl)-5-((4-hydroxy-1-piperidinyl)acetamido)indeno[1,2-c]pyrazol-4-one]: 245 °C; for `C[C@@H]1CN(c2ccc(-c3[nH]nc4c3C(=O)c3c(NC(=O)NN5CCOCC5)cccc3-4)cc2)C[C@H](C)N1` (as salt: TFA) [Example CCXXXVIII, 3-(4-(cis-3,5-dimethylpiperazino)phenyl)-5-(morpholinocarbamoylamino)indeno[1,2-c]pyrazol-4-one]: 237 °C.
The same measure for `CN1C[C@@H]2C[C@H]1CN2C(=O)N1CCC(c2[nH]nc3c2C(=O)c2c(NC(=O)NN4CCOCC4)cccc2-3)CC1` (as salt: TFA) [Example CCLXXIII, 3-(1-(((1S,4S)-(+)-5-methyl-2,5-diazabicyclo[2.2.1]hept-2-yl)carbonyl)piperidin-4-yl)-5-(morpholinocarbamoylamino)indeno[1,2-c]pyrazol-4-one]: 225 °C.
As to `CN1CCN(C(=O)c2ccc(-c3[nH]nc4c3C(=O)c3c(NC(=O)NN5CCOCC5)cccc3-4)s2)CC1` (as salt: TFA) [Example CL, 3-(5-(4-methylpiperazinocarbonyl)-2-thienyl)-5-(morpholinocarbamoylamino)indeno[1,2-c]pyrazol-4-one], the melting point worked out at 186 °C.
`NC1CCN(C(=O)c2ccc(-c3[nH]nc4c3C(=O)c3c(NC(=O)NN5CCOCC5)cccc3-4)s2)C1` (centres unmarked) (as salt: TFA) [Example CLXXV, 3-(5-(3-aminopyrrolidinocarbonyl)-2-thienyl)-5-(morpholinocarbamoylamino)indeno[1,2-c]pyrazol-4-one] gave a melting point of 201 °C.
With `CO[C@H]1CC[C@@H](C(=O)N2CCC(c3[nH]nc4c3C(=O)c3c(NC(=O)NN5CCOCC5)cccc3-4)CC2)CC1` (as salt: TFA) [Example CCXCIII, 3-(1-(cis-4-methoxycyclohexylcarbonyl)piperidin-4-yl)-5-(morpholinocarbamoylamino)indeno[1,2-c]pyrazol-4-one] the figure was 178 °C; with `COc1ccc(CC(=O)Nc2cccc3c2C(=O)c2c-3n[nH]c2-c2ccc(OC)cc2)cc1` [Example XII, 3-(4-methoxyphenyl)-5-((4-methoxyphenyl)acetamido)indeno[1,2-c]pyrazol-4-one], 280 °C.
The same measure for `NC(=O)Nc1cccc2c1C(=O)c1c-2n[nH]c1-c1ccco1` [Example CIII, 3-(2-furanyl)-5-(carbamoylamino)indeno[1,2-c]pyrazol-4-one]: 278 °C; for `CC(=O)Nc1ccc(NC(=O)c2ccc(-c3[nH]nc4c3C(=O)c3c(NC(=O)NN5CCOCC5)cccc3-4)s2)cc1` (as salt: TFA) [Example CXCVII, 3-(5-((4-acetamidophenyl)aminocarbonyl)-2-thienyl)-5-(morpholinocarbamoylamino)indeno[1,2-c]pyrazol-4-one]: 253 °C; for `NCC1CCN(CC(=O)Nc2cccc3c2C(=O)c2c-3n[nH]c2-c2ccc(N3CCNCC3)cc2)CC1` (as salt: TFA) [Example CCXVII, 3-(4-piperazinophenyl)-5-(4-(aminomethyl)piperidinoacetamido)indeno[1,2-c]pyrazol-4-one]: 239 °C.
The same measure for `COc1ccc(-c2[nH]nc3c2C(=O)c2c(NC(=O)CN4CCN(CCN)CC4)cccc2-3)cc1` [Example LXXI, 3-(4-methoxyphenyl)-5-(4-(aminoethyl)piperazinoacetamido)indeno[1,2-c]pyrazol-4-one]: > 300 °C.
In the case of `O=C(Nc1cccc2c1C(=O)c1c-2n[nH]c1C1CCN(C(=O)Oc2ccccc2)CC1)NN1CCOCC1` (as salt: TFA), the melting point stood at 250 °C.
`COc1ccc(-c2[nH]nc3c2C(=O)c2c(NC(=O)Cc4cc(OC)ccc4OC)cccc2-3)cc1` [Example XIV, 3-(4-methoxyphenyl)-5-((2,5-dimethoxyphenyl)acetamido)indeno[1,2-c]pyrazol-4-one] showed a melting point of 226 °C.
With `O=C(CN1CCOCC1)Nc1cccc2c1C(=O)c1c-2n[nH]c1-c1ccc(N2CCOCC2)cc1` [Example LXXXI, 3-(4-morpholinophenyl)-5-(morpholinoacetamido)indeno[1,2-c]pyrazol-4-one] the figure was 258 °C; with `COC[C@H]1CCCN1NC(=O)Nc1cccc2c1C(=O)c1c-2n[nH]c1-c1ccc(C(=O)O)s1` (as salt: TFA) [Example CCII, 3-(5-carboxyl-2-thienyl)-5-(2(R)-(methoxymethyl)pyrrolidinocarbamoylamino)indeno[1,2-c]pyrazol-4-one], 258 °C; with `CCc1[nH]nc2c1C(=O)c1c(NC(=O)NN3CCN(C)CC3)cccc1-2` (as salt: TFA) [Example CCLVI, 3-ethyl-5-(4-methylpiperazinocarbamoylamino)indeno[1,2-c]pyrazol-4-one], 244 °C.
With `O=C(CN1CCOCC1)Nc1cccc2c1C(=O)c1c-2n[nH]c1-c1ccc(N2CCNCC2)cc1` (as salt: TFA) [Example CCXV, 3-(4-piperazinophenyl)-5-(morpholinoacetamido)indeno[1,2-c]pyrazol-4-one], the melting point turned out to be 259 °C.
With `O=C(Nc1cccc2c1C(=O)c1c-2n[nH]c1-c1ccc(C(=O)N2CCCC2)s1)NN1CCOCC1` (as salt: TFA) [Example CLXXIV, 3-(5-pyrrolidinocarbonyl-2-thienyl)-5-(morpholinocarbamoylamino)indeno[1,2-c]pyrazol-4-one] the figure was > 300 °C.
With `CN(C)C1CCCC(C(=O)N2CCC(c3[nH]nc4c3C(=O)c3c(NC(=O)NN5CCOCC5)cccc3-4)CC2)C1` (centres unmarked) (as salt: TFA) [Example CCXCI, 3-(1-(3-(dimethylamino)cyclohexylcarbonyl)piperidin-4-yl)-5-(morpholinocarbamoylamino)indeno[1,2-c]pyrazol-4-one] the figure was 153 °C; with `COc1ccc(-c2[nH]nc3c2C(=O)c2c(NC(=O)Cc4ccc(N=[N+]=[N-])cc4)cccc2-3)cc1` [Example XL, 3-(4-methoxyphenyl)-5-((4-azidophenyl)acetamido)indeno[1,2-c]pyrazol-4-one], > 300 °C; with `CC(C)(C)OC(=O)N1CCC(C(=O)N2CCC(c3[nH]nc4c3C(=O)c3c(NC(=O)NN5CCOCC5)cccc3-4)CC2)CC1` [Example CCLXXXI, 3-(1-((1-(t-butoxycarbonyl)piperidin-4-yl)carbonyl)piperidin-4-yl)-5-(morpholinocarbamoylamino)indeno[1,2-c]pyrazol-4-one], 220 °C.
`CN(C)[C@@H]1CCN(C(=O)c2ccc(-c3[nH]nc4c3C(=O)c3c(NC(=O)NN5CCOCC5)cccc3-4)s2)C1` (as salt: TFA) [Example CLXXXI, 3-(5-(3(R)-(N,N-dimethylamino)pyrrolidinocarbonyl)-2-thienyl)-5-(morpholinocarbamoylamino)indeno[1,2-c]pyrazol-4-one] returned a melting point of 265 °C.
The same measure for `CN1CCN(NC(=O)Nc2cccc3c2C(=O)c2c-3n[nH]c2-c2ccc(N3CCNCC3)cc2)CC1` (as salt: TFA) [Example CCXXIII, 3-(4-piperazinophenyl)-5-((4-methylpiperazino)carbamoylamino)indeno[1,2-c]pyrazol-4-one]: 254 °C; for `O=C(Nc1cccc2c1C(=O)c1c-2n[nH]c1-c1ccc(N2CCNCC2)cc1)NN1CCC[C@@H]1CO` (as salt: TFA) [Example CCXXXIII, 3-(4-piperazinophenyl)-5-((2(R)-(hydroxymethyl)pyrrolidino)carbamoylamino)indeno[1,2-c]pyrazol-4-one]: 193 °C; for `COc1ccc(-c2[nH]nc3c2C(=O)c2c(NC(=O)Cc4ccc(N)cc4)cccc2-3)cc1` [Example XLI, 3-(4-methoxyphenyl)-5-((4-aminophenyl)acetamido)indeno[1,2-c]pyrazol-4-one]: 283 °C.

For orientation: melting point means the temperature of the solid-liquid transition.
